Measured values reported in US20250050053A1, “METHOD OF TREATMENT AND SELECTION OF PATIENTS BENEFITING FROM AGOMELATINE BASED ON EEG MEASUREMENTS” (Alto Neuroscience, Inc., priority 2023, published 2025).

What was measured:
[1] = system: patients with major depressive disorder; test: Open-label trials of adjunctive agomelatine 25 mg at bedtime; baseline EEG machine learning models predicting change in MADRS; format: in vivo, human
Description: The inventors conducted two parallel open-label clinical trials of agomelatine at 25 mg once at bedtime in patients with major depressive disorder (NCT05118750 and NCT05157945, whose data was pooled in these analyses). […] Patients were evaluated over the course of eight weeks of treatment.
EEG data were collected at rest (encompassing both eyes open and eyes closed conditions) prior to treatment using a 19-channel EEG system covering the conventional 10-20 electrode locations. A total of 107 patients with moderate to severe depression (MADRS 20 and PHQ-9≥10) had EEG data (107 with eyes open (REO) EEG, 105 with eyes closed (REC) EEG). Quality control assessments were conducted, yielding 105 REO patient datasets and 103 REC patient datasets. […] The training dataset consisted of 60 REO patient datasets and 60 REC patient datasets. The holdout set consisted of […] and […].
In order to compile these individual signals into a single EEG composite entropy model for prediction of treatment outcome, the inventors conducted 10-fold cross-validated machine learning using elastic net regularization against an outcome of high versus low response to agomelatine. Cross-validation divides the training dataset iteratively into 9/10 for training the machine learning model and 1/10 for evaluating the predictive utility of the model (i.e., participants left out of the training itself, though part of the aforementioned training dataset). The training sample is then divided in this way until each participant has been left out of the training subset.
The Cohen's d effect sizes at these weeks are all >0.4, indicating a substantial effect size for the prediction, especially considering that the meta-analytically calculated all-comer (i.e., unselected depression patients) effect size for the difference in treatment response to agomelatine (as monotherapy) versus placebo is d=0.26 (Cipriani et al., Lancet., 2018, 391(10128):1357-1366, PMID: 29477251).
In addition to sample entropy, the inventors developed similar machine learning models to test the predictive utility of a range of other EEG complexity measures, as well as other common EEG indices. […] Thus, certain complexity measures appear to carry consistent and strong prediction of agomelatine outcome.

[2] = system: unselected depression patients; conditions: Cipriani et al. 2018; cited from earlier work

## COc1ccc2cccc(CCNC(C)=O)c2c1 [agomelatine, N-[2-(7-methoxynaphthalen-1-yl)ethyl]acetamide]
[1]; EEG sample entropy machine learning model, cross-validation left-out data of training dataset, all weeks
  Cohen's d effect size, predicted responders vs non-responders, change in MADRS: > 0.4
[1]; REC, Approximate Entropy, lower gamma, Week 1
  Cohen's d, prediction of agomelatine outcome: 0.23
[1]; REC, Approximate Entropy, lower gamma, Week 2
  Cohen's d, prediction of agomelatine outcome: 0.29
[1]; REC, Approximate Entropy, lower gamma, Week 4
  Cohen's d, prediction of agomelatine outcome: 0.46
[1]; REC, Detrended Fluctuation Analysis, lower beta, Week 1
  Cohen's d, prediction of agomelatine outcome: 0.49
[1]; REC, Detrended Fluctuation Analysis, lower beta, Week 2
  Cohen's d, prediction of agomelatine outcome: 0.44
[1]; REC, Detrended Fluctuation Analysis, lower beta, Week 4
  Cohen's d, prediction of agomelatine outcome: 0.41
[1]; REC, Detrended Fluctuation Analysis, upper beta, Week 1
  Cohen's d, prediction of agomelatine outcome: 0.19
[1]; REC, Detrended Fluctuation Analysis, upper beta, Week 2
  Cohen's d, prediction of agomelatine outcome: 0.20
[1]; REC, Detrended Fluctuation Analysis, upper beta, Week 4
  Cohen's d, prediction of agomelatine outcome: 0.25
[1]; REC, Higuchi Fractal Dimension, lower beta, Week 1
  Cohen's d, prediction of agomelatine outcome: 0.44
[1]; REC, Higuchi Fractal Dimension, lower beta, Week 2
  Cohen's d, prediction of agomelatine outcome: 0.36
[1]; REC, Higuchi Fractal Dimension, lower beta, Week 4
  Cohen's d, prediction of agomelatine outcome: 0.28
[1]; REC, Higuchi Fractal Dimension, lower gamma, Week 1
  Cohen's d, prediction of agomelatine outcome: 0.64
[1]; REC, Higuchi Fractal Dimension, lower gamma, Week 2
  Cohen's d, prediction of agomelatine outcome: 0.58
[1]; REC, Higuchi Fractal Dimension, lower gamma, Week 4
  Cohen's d, prediction of agomelatine outcome: 0.57
[1]; REC, Higuchi Fractal Dimension, upper beta, Week 1
  Cohen's d, prediction of agomelatine outcome: −0.29
[1]; REC, Higuchi Fractal Dimension, upper beta, Week 2
  Cohen's d, prediction of agomelatine outcome: −0.20
[1]; REC, Higuchi Fractal Dimension, upper beta, Week 4
  Cohen's d, prediction of agomelatine outcome: −0.05
[1]; REC, Higuchi Fractal Dimension, upper gamma, Week 1
  Cohen's d, prediction of agomelatine outcome: 0.16
[1]; REC, Higuchi Fractal Dimension, upper gamma, Week 2
  Cohen's d, prediction of agomelatine outcome: 0.16
[1]; REC, Higuchi Fractal Dimension, upper gamma, Week 4
  Cohen's d, prediction of agomelatine outcome: 0.21
[1]; REC, Katz Fractal Dimension, lower beta, Week 1
  Cohen's d, prediction of agomelatine outcome: 0.47
[1]; REC, Katz Fractal Dimension, lower beta, Week 2
  Cohen's d, prediction of agomelatine outcome: 0.42
[1]; REC, Katz Fractal Dimension, lower beta, Week 4
  Cohen's d, prediction of agomelatine outcome: 0.37
[1]; REC, Katz Fractal Dimension, lower gamma, Week 1
  Cohen's d, prediction of agomelatine outcome: 0.25
[1]; REC, Katz Fractal Dimension, lower gamma, Week 2
  Cohen's d, prediction of agomelatine outcome: 0.23
[1]; REC, Katz Fractal Dimension, lower gamma, Week 4
  Cohen's d, prediction of agomelatine outcome: 0.23
[1]; REC, Katz Fractal Dimension, upper beta, Week 1
  Cohen's d, prediction of agomelatine outcome: 0.42
[1]; REC, Katz Fractal Dimension, upper beta, Week 2
  Cohen's d, prediction of agomelatine outcome: 0.40
[1]; REC, Katz Fractal Dimension, upper beta, Week 4
  Cohen's d, prediction of agomelatine outcome: 0.42
[1]; REC, Katz Fractal Dimension, upper gamma, Week 1
  Cohen's d, prediction of agomelatine outcome: 0.04
[1]; REC, Katz Fractal Dimension, upper gamma, Week 2
  Cohen's d, prediction of agomelatine outcome: 0.10
[1]; REC, Katz Fractal Dimension, upper gamma, Week 4
  Cohen's d, prediction of agomelatine outcome: 0.23
[1]; REC, Largest Lyapunov Exponent, upper alpha, Week 1
  Cohen's d, prediction of agomelatine outcome: 0.10
[1]; REC, Largest Lyapunov Exponent, upper alpha, Week 2
  Cohen's d, prediction of agomelatine outcome: 0.12
[1]; REC, Largest Lyapunov Exponent, upper alpha, Week 4
  Cohen's d, prediction of agomelatine outcome: 0.18
[1]; REC, Largest Lyapunov Exponent, upper gamma, Week 1
  Cohen's d, prediction of agomelatine outcome: −0.02
[1]; REC, Largest Lyapunov Exponent, upper gamma, Week 2
  Cohen's d, prediction of agomelatine outcome: 0.08
[1]; REC, Largest Lyapunov Exponent, upper gamma, Week 4
  Cohen's d, prediction of agomelatine outcome: 0.29
[1]; REC, Lempel-Ziv Complexity, lower gamma, Week 1
  Cohen's d, prediction of agomelatine outcome: −0.06
[1]; REC, Lempel-Ziv Complexity, lower gamma, Week 2
  Cohen's d, prediction of agomelatine outcome: 0.01
[1]; REC, Lempel-Ziv Complexity, lower gamma, Week 4
  Cohen's d, prediction of agomelatine outcome: 0.15
[1]; REC, Lempel-Ziv Complexity, upper alpha, Week 1
  Cohen's d, prediction of agomelatine outcome: 0.21
[1]; REC, Lempel-Ziv Complexity, upper alpha, Week 2
  Cohen's d, prediction of agomelatine outcome: 0.17
[1]; REC, Lempel-Ziv Complexity, upper alpha, Week 4
  Cohen's d, prediction of agomelatine outcome: 0.13
[1]; REC, Modified Multiscale Entropy, lower alpha, Week 1
  Cohen's d, prediction of agomelatine outcome: 0.08
[1]; REC, Modified Multiscale Entropy, lower alpha, Week 2
  Cohen's d, prediction of agomelatine outcome: 0.11
[1]; REC, Modified Multiscale Entropy, lower alpha, Week 4
  Cohen's d, prediction of agomelatine outcome: 0.19
[1]; REC, Modified Multiscale Entropy, lower gamma, Week 1
  Cohen's d, prediction of agomelatine outcome: −0.09
[1]; REC, Modified Multiscale Entropy, lower gamma, Week 2
  Cohen's d, prediction of agomelatine outcome: 0.01
[1]; REC, Modified Multiscale Entropy, lower gamma, Week 4
  Cohen's d, prediction of agomelatine outcome: 0.21
[1]; REC, Modified Multiscale Entropy, upper alpha, Week 1
  Cohen's d, prediction of agomelatine outcome: 0.19
[1]; REC, Modified Multiscale Entropy, upper alpha, Week 2
  Cohen's d, prediction of agomelatine outcome: 0.25
[1]; REC, Modified Multiscale Entropy, upper alpha, Week 4
  Cohen's d, prediction of agomelatine outcome: 0.39
[1]; REC, Multiscale Entropy, upper alpha, Week 1
  Cohen's d, prediction of agomelatine outcome: 0.05
[1]; REO, Approximate Entropy, lower gamma, Week 1
  Cohen's d, prediction of agomelatine outcome: −0.15
[1]; REO, Approximate Entropy, lower gamma, Week 2
  Cohen's d, prediction of agomelatine outcome: −0.05
[1]; REO, Approximate Entropy, lower gamma, Week 4
  Cohen's d, prediction of agomelatine outcome: 0.09
[1]; REO, Detrended Fluctuation Analysis, upper gamma, Week 1
  Cohen's d, prediction of agomelatine outcome: 0.37
[1]; REO, Detrended Fluctuation Analysis, upper gamma, Week 2
  Cohen's d, prediction of agomelatine outcome: 0.33
[1]; REO, Detrended Fluctuation Analysis, upper gamma, Week 4
  Cohen's d, prediction of agomelatine outcome: 0.32
[1]; REO, Higuchi Fractal Dimension, delta, Week 1
  Cohen's d, prediction of agomelatine outcome: −0.15
[1]; REO, Higuchi Fractal Dimension, delta, Week 2
  Cohen's d, prediction of agomelatine outcome: −0.05
[1]; REO, Higuchi Fractal Dimension, delta, Week 4
  Cohen's d, prediction of agomelatine outcome: 0.12
[1]; REO, Higuchi Fractal Dimension, lower beta, Week 1
  Cohen's d, prediction of agomelatine outcome: 0.03
[1]; REO, Higuchi Fractal Dimension, lower beta, Week 2
  Cohen's d, prediction of agomelatine outcome: 0.03
[1]; REO, Higuchi Fractal Dimension, lower beta, Week 4
  Cohen's d, prediction of agomelatine outcome: 0.05
[1]; REO, Higuchi Fractal Dimension, upper gamma, Week 1
  Cohen's d, prediction of agomelatine outcome: 0.04
[1]; REO, Higuchi Fractal Dimension, upper gamma, Week 2
  Cohen's d, prediction of agomelatine outcome: 0.06
[1]; REO, Higuchi Fractal Dimension, upper gamma, Week 4
  Cohen's d, prediction of agomelatine outcome: 0.11
[1]; REO, Katz Fractal Dimension, delta, Week 1
  Cohen's d, prediction of agomelatine outcome: 0.04
[1]; REO, Katz Fractal Dimension, delta, Week 2
  Cohen's d, prediction of agomelatine outcome: 0.07
[1]; REO, Katz Fractal Dimension, delta, Week 4
  Cohen's d, prediction of agomelatine outcome: 0.13
[1]; REO, Katz Fractal Dimension, lower beta, Week 1
  Cohen's d, prediction of agomelatine outcome: 0.28
[1]; REO, Katz Fractal Dimension, lower beta, Week 2
  Cohen's d, prediction of agomelatine outcome: 0.18
[1]; REO, Katz Fractal Dimension, lower beta, Week 4
  Cohen's d, prediction of agomelatine outcome: 0.06
[1]; REO, Katz Fractal Dimension, upper beta, Week 1
  Cohen's d, prediction of agomelatine outcome: 0.24
[1]; REO, Katz Fractal Dimension, upper beta, Week 2
  Cohen's d, prediction of agomelatine outcome: 0.24
[1]; REO, Katz Fractal Dimension, upper beta, Week 4
  Cohen's d, prediction of agomelatine outcome: 0.29
[1]; REO, Largest Lyapunov Exponent, upper alpha, Week 1
  Cohen's d, prediction of agomelatine outcome: 0.03
[1]; REO, Largest Lyapunov Exponent, upper alpha, Week 2
  Cohen's d, prediction of agomelatine outcome: 0.08
[1]; REO, Largest Lyapunov Exponent, upper alpha, Week 4
  Cohen's d, prediction of agomelatine outcome: 0.17
[1]; REO, Largest Lyapunov Exponent, upper gamma, Week 1
  Cohen's d, prediction of agomelatine outcome: −0.24
[1]; REO, Largest Lyapunov Exponent, upper gamma, Week 2
  Cohen's d, prediction of agomelatine outcome: −0.11
[1]; REO, Largest Lyapunov Exponent, upper gamma, Week 4
  Cohen's d, prediction of agomelatine outcome: 0.08
[1]; REO, Lempel-Ziv Complexity, lower gamma, Week 1
  Cohen's d, prediction of agomelatine outcome: −0.24
[1]; REO, Lempel-Ziv Complexity, lower gamma, Week 2
  Cohen's d, prediction of agomelatine outcome: −0.13
[1]; REO, Lempel-Ziv Complexity, lower gamma, Week 4
  Cohen's d, prediction of agomelatine outcome: 0.02
[1]; REO, Lempel-Ziv Complexity, theta, Week 1
  Cohen's d, prediction of agomelatine outcome: 0.13
[1]; REO, Lempel-Ziv Complexity, theta, Week 2
  Cohen's d, prediction of agomelatine outcome: 0.14
[1]; REO, Lempel-Ziv Complexity, theta, Week 4
  Cohen's d, prediction of agomelatine outcome: 0.17
[1]; REO, Lempel-Ziv Complexity, upper beta, Week 1
  Cohen's d, prediction of agomelatine outcome: 0.19
[1]; REO, Lempel-Ziv Complexity, upper beta, Week 2
  Cohen's d, prediction of agomelatine outcome: 0.21
[1]; REO, Lempel-Ziv Complexity, upper beta, Week 4
  Cohen's d, prediction of agomelatine outcome: 0.30
[1]; REO, Modified Multiscale Entropy, upper beta, Week 1
  Cohen's d, prediction of agomelatine outcome: 0.08
[1]; REO, Modified Multiscale Entropy, upper beta, Week 2
  Cohen's d, prediction of agomelatine outcome: 0.15
[1]; REO, Modified Multiscale Entropy, upper beta, Week 4
  Cohen's d, prediction of agomelatine outcome: 0.31
[1]; REO, Multiscale Entropy, lower gamma, Week 1
  Cohen's d, prediction of agomelatine outcome: −0.41
[1]; REO, Multiscale Entropy, lower gamma, Week 2
  Cohen's d, prediction of agomelatine outcome: −0.21
[1]; REO, Multiscale Entropy, lower gamma, Week 4
  Cohen's d, prediction of agomelatine outcome: 0.05
[1]; z≥0.27, full study sample, all weeks
  MADRS change, high vs low Pz low-gamma sample entropy: strong and statistically significant prediction of treatment outcome across all weeks
[2]
  all-comer effect size d, treatment response to agomelatine (as monotherapy) versus placebo: 0.26
